Data from the NIST ThermoML archive (doi:10.1007/s10765-005-5570-x).
Numbers after ± are expanded uncertainties.

Assay: xn = mol fraction of the nth substance listed
Details: Liquid

ClCCCl [1,2-dichloroethane] + CCOC(C)=O
mass density (288.15 K, 101.33 kPa, x1 = 0.1036): 936.39 ± 0.41 kg/m3 | mass density (288.15 K, 101.33 kPa, x1 = 0.2054): 966.98 ± 0.36 kg/m3 | mass density (288.15 K, 101.33 kPa, x1 = 0.3019): 996.99 ± 0.32 kg/m3 | mass density (288.15 K, 101.33 kPa, x1 = 0.4003): 1028.99 ± 0.36 kg/m3 | mass density (288.15 K, 101.33 kPa, x1 = 0.4963): 1061.48 ± 0.43 kg/m3 | mass density (288.15 K, 101.33 kPa, x1 = 0.602): 1098.83 ± 0.5 kg/m3 | mass density (288.15 K, 101.33 kPa, x1 = 0.682): 1128.5 ± 0.6 kg/m3 | mass density (288.15 K, 101.33 kPa, x1 = 0.8002): 1174.96 ± 0.67 kg/m3 | mass density (288.15 K, 101.33 kPa, x1 = 0.9001): 1216.19 ± 0.76 kg/m3 | mass density (288.15 K, 101.33 kPa, x1 = 1): 1260.13 ± 0.86 kg/m3 | mass density (298.15 K, 101.33 kPa, x1 = 0.1036): 924.54 ± 0.43 kg/m3 | mass density (298.15 K, 101.33 kPa, x1 = 0.2054): 954.82 ± 0.38 kg/m3 | mass density (298.15 K, 101.33 kPa, x1 = 0.3019): 984.84 ± 0.33 kg/m3 | mass density (298.15 K, 101.33 kPa, x1 = 0.4003): 1016.64 ± 0.34 kg/m3 | mass density (298.15 K, 101.33 kPa, x1 = 0.4963): 1048.95 ± 0.4 kg/m3 | mass density (298.15 K, 101.33 kPa, x1 = 0.602): 1086.09 ± 0.48 kg/m3 | mass density (298.15 K, 101.33 kPa, x1 = 0.682): 1115.64 ± 0.54 kg/m3 | mass density (298.15 K, 101.33 kPa, x1 = 0.8002): 1161.78 ± 0.64 kg/m3 | mass density (298.15 K, 101.33 kPa, x1 = 0.9001): 1202.79 ± 0.73 kg/m3 | mass density (298.15 K, 101.33 kPa, x1 = 1): 1246.59 ± 0.83 kg/m3 | mass density (298.15 K, 200 kPa, x1 = 0.2995): 983.88 ± 0.34 kg/m3 | mass density (298.15 K, 200 kPa, x1 = 0.5013): 1046.97 ± 0.4 kg/m3 | mass density (298.15 K, 200 kPa, x1 = 0.6994): 1120.18 ± 0.55 kg/m3 | mass density (298.15 K, 500 kPa, x1 = 0.2995): 984.27 ± 0.34 kg/m3 | mass density (298.15 K, 600 kPa, x1 = 0.5013): 1047.36 ± 0.4 kg/m3 | mass density (298.15 K, 600 kPa, x1 = 0.6994): 1120.72 ± 0.56 kg/m3 | mass density (298.15 K, 1100 kPa, x1 = 0.5013): 1047.97 ± 0.41 kg/m3 | mass density (298.15 K, 1200 kPa, x1 = 0.2995): 985.01 ± 0.34 kg/m3 | mass density (298.15 K, 1200 kPa, x1 = 0.6994): 1121.21 ± 0.58 kg/m3 | mass density (298.15 K, 2100 kPa, x1 = 0.5013): 1049.05 ± 0.42 kg/m3 | mass density (298.15 K, 2100 kPa, x1 = 0.6994): 1122.19 ± 0.6 kg/m3 | mass density (298.15 K, 2300 kPa, x1 = 0.2995): 986.02 ± 0.34 kg/m3 | mass density (298.15 K, 2900 kPa, x1 = 0.2995): 986.78 ± 0.34 kg/m3 | mass density (298.15 K, 3000 kPa, x1 = 0.6994): 1122.99 ± 0.63 kg/m3 | mass density (298.15 K, 3200 kPa, x1 = 0.5013): 1050.04 ± 0.43 kg/m3 | mass density (298.15 K, 3900 kPa, x1 = 0.5013): 1050.82 ± 0.44 kg/m3 | mass density (298.15 K, 4000 kPa, x1 = 0.2995): 987.78 ± 0.34 kg/m3 | mass density (298.15 K, 4000 kPa, x1 = 0.6994): 1124.04 ± 0.65 kg/m3 | mass density (298.15 K, 4800 kPa, x1 = 0.5013): 1051.57 ± 0.45 kg/m3 | mass density (298.15 K, 4800 kPa, x1 = 0.6994): 1124.91 ± 0.68 kg/m3 | mass density (298.15 K, 5000 kPa, x1 = 0.2995): 988.82 ± 0.34 kg/m3 | mass density (298.15 K, 5900 kPa, x1 = 0.2995): 989.64 ± 0.34 kg/m3 | mass density (298.15 K, 6100 kPa, x1 = 0.5013): 1052.93 ± 0.47 kg/m3 | mass density (298.15 K, 6100 kPa, x1 = 0.6994): 1126.11 ± 0.72 kg/m3 | mass density (298.15 K, 6900 kPa, x1 = 0.2995): 990.62 ± 0.34 kg/m3 | mass density (298.15 K, 7000 kPa, x1 = 0.6994): 1126.84 ± 0.74 kg/m3 | mass density (298.15 K, 7100 kPa, x1 = 0.5013): 1053.82 ± 0.48 kg/m3 | mass density (298.15 K, 7800 kPa, x1 = 0.2995): 991.51 ± 0.33 kg/m3 | mass density (298.15 K, 7800 kPa, x1 = 0.5013): 1054.57 ± 0.49 kg/m3 | mass density (298.15 K, 8000 kPa, x1 = 0.6994): 1127.94 ± 0.78 kg/m3 | mass density (298.15 K, 8600 kPa, x1 = 0.2995): 992.31 ± 0.33 kg/m3 | mass density (298.15 K, 8800 kPa, x1 = 0.6994): 1128.76 ± 0.8 kg/m3 | mass density (298.15 K, 9000 kPa, x1 = 0.5013): 1055.76 ± 0.51 kg/m3 | mass density (298.15 K, 9800 kPa, x1 = 0.5013): 1056.47 ± 0.52 kg/m3 | mass density (298.15 K, 9900 kPa, x1 = 0.2995): 993.71 ± 0.33 kg/m3 | mass density (298.15 K, 9900 kPa, x1 = 0.6994): 1129.84 ± 0.84 kg/m3 | mass density (298.15 K, 11700 kPa, x1 = 0.2995): 995.34 ± 0.33 kg/m3 | mass density (298.15 K, 11900 kPa, x1 = 0.5013): 1058.45 ± 0.55 kg/m3 | mass density (298.15 K, 12000 kPa, x1 = 0.6994): 1131.77 ± 0.91 kg/m3 | mass density (298.15 K, 13700 kPa, x1 = 0.6994): 1133.5 ± 0.96 kg/m3 | mass density (298.15 K, 13800 kPa, x1 = 0.2995): 997.35 ± 0.32 kg/m3 | mass density (298.15 K, 13800 kPa, x1 = 0.5013): 1060.29 ± 0.58 kg/m3 | mass density (298.15 K, 15600 kPa, x1 = 0.6994): 1135.23 ± 1 kg/m3 | mass density (298.15 K, 15900 kPa, x1 = 0.2995): 999.26 ± 0.32 kg/m3 | mass density (298.15 K, 15900 kPa, x1 = 0.5013): 1062.3 ± 0.62 kg/m3 | mass density (298.15 K, 17700 kPa, x1 = 0.6994): 1137.32 ± 1.1 kg/m3 | mass density (298.15 K, 17900 kPa, x1 = 0.2995): 1001.14 ± 0.32 kg/m3 | mass density (298.15 K, 18000 kPa, x1 = 0.5013): 1064.25 ± 0.66 kg/m3 | mass density (298.15 K, 19400 kPa, x1 = 0.2995): 1002.51 ± 0.33 kg/m3 | mass density (298.15 K, 19600 kPa, x1 = 0.6994): 1139.1 ± 1.2 kg/m3 | mass density (298.15 K, 19900 kPa, x1 = 0.5013): 1065.99 ± 0.7 kg/m3 | mass density (308.15 K, 101.33 kPa, x1 = 0.1036): 911.53 ± 0.46 kg/m3 | mass density (308.15 K, 101.33 kPa, x1 = 0.2054): 941.7 ± 0.4 kg/m3 | mass density (308.15 K, 101.33 kPa, x1 = 0.3019): 971.32 ± 0.35 kg/m3 | mass density (308.15 K, 101.33 kPa, x1 = 0.4003): 1002.93 ± 0.32 kg/m3 | mass density (308.15 K, 101.33 kPa, x1 = 0.4963): 1035.07 ± 0.38 kg/m3 | mass density (308.15 K, 101.33 kPa, x1 = 0.602): 1071.98 ± 0.45 kg/m3 | mass density (308.15 K, 101.33 kPa, x1 = 0.682): 1101.3 ± 0.51 kg/m3 | mass density (308.15 K, 101.33 kPa, x1 = 0.8002): 1147.08 ± 0.61 kg/m3 | mass density (308.15 K, 101.33 kPa, x1 = 0.9001): 1187.86 ± 0.7 kg/m3 | mass density (308.15 K, 101.33 kPa, x1 = 1): 1231.27 ± 0.79 kg/m3
